Molecules are shown by their SMILES. Where two headings read alike, the source gives them in different places. Some results are limits rather than exact numbers.

This test concerns P. falciparum (NF54 or 3D7 strain). The test can be described thus: Assay for P. falciparum proliferation in infected human blood cells (SYBR Green). The class given is cell-based, Plasmodium falciparum. As to conditions: Plasmodium falciparum, Erythrocyte. Here is the method: Assay for P. falciparum Proliferation in Infected Human Blood Cells
Compounds of the invention can be assayed to measure their capacity to inhibit proliferation of P. falciparum parasitemia in infected red blood cells. This parasite proliferation assay measures the increase in parasite DNA content using a DNA intercalating dye, SYBR Green® (INVITROGEN®) which has a high affinity for double stranded DNA.
NF54 or 3D7 P. falciparum strain is grown in complete culturing media until parasitemia reaches 3% to 8% with O+ human erythrocytes. […] 20 μl of screening media is dispensed into 384 well assay plates. 50 nl of compounds of the invention (in DMSO), including antimalarial controls (mefloquine, pyrimethamine and artemisinin), are then transferred into the assay plates, as well as DMSO alone to serve as a negative control for inhibition. Then 30 μl of a suspension of a NF54 or 3D7 P. falciparum infected erythrocytes in screening media is dispensed into the assay plates such that the final hematocrit is 2.5% with a final parasitemia of 0.3%. The plates are placed in a 37° C. incubator for 72 hours in a low oxygen environment containing 93% N2, 4% CO2, and 3% O2 gas mixture. 10 μl of lysis buffer (saponin, triton-X, EDTA) containing a 10× solution of SYBR Green I® in RPMI media is dispensed into the plates. The plates are lidded and kept at room temperature overnight for the lysis of the infected red blood cells. The fluorescence intensity is measured (excitation […], emission 530 nm) using the Envision™ system (Perkin Elmer).

[1] abbreviates: 72 h, NF54 or 3D7 infected human erythrocytes, 72 hours, read-out: EC50 (nM), inhibitory efficacy in delaying P. falciparum proliferation in infected human blood cells.

As to `COc1ccc(-c2cnc3cnc(C(=O)N(C)c4ccc(C#N)cc4)cn23)cc1C` [Compound 30, N-(4-cyanophenyl)-3-(4-methoxy-3-methylphenyl)-N-methylimidazo[1,2-a]pyrazine-6-carboxamide], the EC50 under setting [1] amounted to 2510 nM.
The same measure, in the same setting: the same measure for `CN(C(=O)c1cn2c(-c3ccc(C(F)(F)F)cc3Cl)cnc2cn1)c1ccc(C#N)cc1` [Compound 31, 3-[2-chloro-4-(trifluoromethyl)phenyl]-N-(4-cyanophenyl)-N-methylimidazo[1,2-a]pyrazine-6-carboxamide]: 1200 nM; for `CN(C(=O)c1cn2c(-c3ccc(C(F)(F)F)cc3)cnc2cn1)c1ccc(F)c(Cl)c1` [Compound 32, N-(3-chloro-4-fluorophenyl)-N-methyl-3-[4-(trifluoromethyl)phenyl]imidazo[1,2-a]pyrazine-6-carboxamide]: 135 nM; for `CC(=O)c1cnc2cnc(C(=O)N(C)c3ccc(Cl)nc3)cn12` [Compound 33, 3-acetyl-N-(6-chloropyridin-3-yl)-N-methylimidazo[1,2-a]pyrazine-6-carboxamide]: 4710 nM.
Still for that read-out and setting: for `CN(C(=O)c1cn2c(-c3ccc(C(F)(F)F)cc3)cnc2cn1)c1cccc(Cl)c1` [Compound 35, N-(3-chlorophenyl)-N-methyl-3-[4-(trifluoromethyl)phenyl]imidazo[1,2-a]pyrazine-6-carboxamide] the value was 462 nM; for `CN(C)c1ccc(-c2cnc3cnc(CN(C)c4ccc(F)cc4)cn23)cc1` [Compound 36, 4-(6-{[(4-fluorophenyl)(methyl)amino]methyl}imidazo[1,2-a]pyrazin-3-yl)-N,N-dimethylaniline], 329 nM.
On the same count and under the same terms, for `CN(C)c1ccc(-c2cnc3cnc(CN(C)c4ccc(Cl)cc4)cn23)cc1` [Compound 37, 4-(6-{[(4-chlorophenyl)(methyl)amino]methyl}imidazo[1,2-a]pyrazin-3-yl)-N,N-dimethylaniline] the value was 640 nM.
Regarding `CCc1ccc(N(C)C(=O)c2cn3c(-c4ccc(C(F)(F)F)cc4)cnc3cn2)nc1` [Compound 39, N-(5-ethylpyridin-2-yl)-N-methyl-3-[4-(trifluoromethyl)phenyl]imidazo[1,2-a]pyrazine-6-carboxamide], the EC50 under setting [1] came out at 1080 nM.
On the same count and under the same terms, the same measure for `CN(C(=O)c1cn2c(-c3ccc(C(F)(F)F)cc3)cnc2cn1)c1ccccc1OC(F)(F)F` [Compound 40, N-methyl-N-[2-(trifluoromethoxy)phenyl]-3-[4-(trifluoromethyl)phenyl]imidazo[1,2-a]pyrazine-6-carboxamide]: 3320 nM.
`COc1ccc(-c2cnc3cnc(C(=O)N(C)c4ccc(Cl)cc4Cl)cn23)cc1` [Compound 41, N-(2,4-dichlorophenyl)-3-(4-methoxyphenyl)-N-methylimidazo[1,2-a]pyrazine-6-carboxamide]: the EC50 under setting [1] was found to be 97 nM.
The same measure, in the same setting: the same measure for `COc1ccc(-c2cnc3cnc(C(=O)N(C)c4ccc(C#N)cc4)cn23)cc1Cl` [Compound 42, -(3-chloro-4-methoxyphenyl)-N-(4-cyanophenyl)-N-methylimidazo[1,2-a]pyrazine-6-carboxamide]: 333 nM; for `CN(C(=O)c1cn2c(-c3ccc(C(F)(F)F)cc3)cnc2cn1)c1ccc(Oc2ccccc2)cc1` [Compound 43, N-methyl-N-(4-phenoxyphenyl)-3-[4-(trifluoromethyl)phenyl]imidazo[1,2-a]pyrazine-6-carboxamide]: over 10000 nM.
On the same count and under the same terms, for `CN(Cc1cn2c(-c3ccc(Cl)cc3)cnc2cn1)c1ccc(Cl)cc1` [Compound 44, 4-chloro-N-{[3-(4-chlorophenyl)imidazo[1,2-a]pyrazin-6-yl]methyl}-N-methylaniline] the value was 206 nM.
The same measure, in the same setting: for `Cc1ccc(N(C)Cc2cn3c(-c4ccc5c(cnn5C)c4)cnc3cn2)nc1` [Compound 45, N,5-dimethyl-N-{[3-(1-methyl-1H-indazol-5-yl)imidazo[1,2-a]pyrazin-6-yl]methyl}pyridin-2-amine] the value was 178 nM.
Turning to `CN(C(=O)c1cn2c(-c3cccc(-c4cn[nH]c4)c3)cnc2cn1)c1ccc(C#N)cc1` [Compound 46, N-(4-cyanophenyl)-N-methyl-3-[3-(1H-pyrazol-4-yl)phenyl]imidazo[1,2-a]pyrazine-6-carboxamide], the EC50 under setting [1] is over 10000 nM.
Regarding `Cc1ccc(N(C)Cc2cn3c(-c4ccc(-c5ccn[nH]5)cc4)cnc3cn2)nc1` [Compound 47, N,5-dimethyl-N-({3-[4-(1H-pyrazol-5-yl)phenyl]imidazo[1,2-a]pyrazin-6-yl}methyl)pyridin-2-amine], the EC50 runs as follows: under setting [1], 1240 nM; (infected human red blood cells, read-out: EC50, P. falciparum Proliferation Assay) under 50 nM.
Take `COc1cccc(-c2cnc3cnc(C(=O)N(C)c4ccc(C#N)cc4)cn23)c1` [Compound 48, N-(4-cyanophenyl)-3-(3-methoxyphenyl)-N-methylimidazo[1,2-a]pyrazine-6-carboxamide]: the EC50 under setting [1] was determined as 5100 nM.
On the same count and under the same terms, for `CN(C(=O)c1cn2c(-c3ccc(C(F)(F)F)cc3)cnc2cn1)c1ccc(Cl)cc1Cl` [Compound 49, N-(2,4-dichlorophenyl)-N-methyl-3-[4-(trifluoromethyl)phenyl]imidazo[1,2-a]pyrazine-6-carboxamide] the value was 314 nM; for `CN(C(=O)c1cn2c(-c3ccc(C(F)(F)F)cc3)cnc2cn1)c1ccc(OC(F)F)cc1` [Compound 50, N-[4-(difluoromethoxy)phenyl]-N-methyl-3-[4-(trifluoromethyl)phenyl]imidazo[1,2-a]pyrazine-6-carboxamide], 828 nM.
The same measure, in the same setting: the same measure for `CN(C(=O)c1cn2c(-c3ccc(C(F)(F)F)cc3)cnc2cn1)c1ccc(-c2cnn(C)c2)cc1` [Compound 51, N-methyl-N-[4-(1-methyl-1H-pyrazol-4-yl)phenyl]-3-[4-(trifluoromethyl)phenyl]imidazo[1,2-a]pyrazine-6-carboxamide]: over 9720 nM; for `CN(C(=O)c1cn2c(-c3ccc(C(F)(F)F)cc3)cnc2cn1)c1ccc(F)c(Br)c1` [Compound 52, N-(3-bromo-4-fluorophenyl)-N-methyl-3-[4-(trifluoromethyl)phenyl]imidazo[1,2-a]pyrazine-6-carboxamide]: 187 nM; for `CN(C(=O)c1cn2c(-c3ccc4c(cnn4C)c3)cnc2cn1)c1ccc(F)c(F)c1` [Compound 53, N-(3,4-difluorophenyl)-N-methyl-3-(1-methyl-1H-indazol-5-yl)imidazo[1,2-a]pyrazine-6-carboxamide]: 12 nM.
The same measure, in the same setting: the same measure for `CN(C(=O)c1cn2c(-c3ccc(C(F)(F)F)cc3)cnc2cn1)c1cccnc1F` [Compound 54, N-(2-fluoropyridin-3-yl)-N-methyl-3-[4-(trifluoromethyl)phenyl]imidazo[1,2-a]pyrazine-6-carboxamide]: over 9280 nM; for `CN(C(=O)c1cn2c(-c3ccc(C(F)(F)F)cc3)cnc2cn1)c1ccc(Cl)c(Cl)c1` [Compound 55, N-(3,4-dichlorophenyl)-N-methyl-3-[4-(trifluoromethyl)phenyl]imidazo[1,2-a]pyrazine-6-carboxamide]: 160 nM; for `Cc1cc(N(C)C(=O)c2cn3c(-c4ccc(C(F)(F)F)cc4)cnc3cn2)ccc1Cl` [Compound 56, N-(4-chloro-3-methylphenyl)-N-methyl-3-[4-(trifluoromethyl)phenyl]imidazo[1,2-a]pyrazine-6-carboxamide]: 491 nM.
Turning to `CN(C(=O)c1cn2c(-c3ccc(C(F)F)cc3)cnc2cn1)c1ccc(C#N)cc1` [Compound 57, N-(4-cyanophenyl)-3-[4-(difluoromethyl)phenyl]-N-methylimidazo[1,2-a]pyrazine-6-carboxamide], under setting [1], the EC50 was found to be 70 nM.
The same measure, in the same setting: the same measure for `CN(C(=O)c1cn2c(-c3ccc(C(F)(F)F)cc3)cnc2cn1)c1ccc(Br)nc1` [Compound 58, N-(6-bromopyridin-3-yl)-N-methyl-3-[4-(trifluoromethyl)phenyl]imidazo[1,2-a]pyrazine-6-carboxamide]: 1140 nM; for `COc1cc(Cl)ccc1N(C)C(=O)c1cn2c(-c3ccc(C(F)(F)F)cc3)cnc2cn1` [Compound 59, N-(4-chloro-2-methoxyphenyl)-N-methyl-3-[4-(trifluoromethyl)phenyl]imidazo[1,2-a]pyrazine-6-carboxamide]: 35 nM; for `CN(C(=O)c1cn2c(-c3ccc(Cl)c(C(F)(F)F)c3)cnc2cn1)c1ccc(C#N)cc1` [Compound 60, 3-[4-chloro-3-(trifluoromethyl)phenyl]-N-(4-cyanophenyl)-N-methylimidazo[1,2-a]pyrazine-6-carboxamide]: 2630 nM.
For the compound `Cc1ccc(-c2cnc3cnc(C(=O)N(C)c4ccc(Cl)cc4Cl)cn23)cc1` [Compound 61, N-(2,4-dichlorophenyl)-N-methyl-3-(4-methylphenyl)imidazo[1,2-a]pyrazine-6-carboxamide], under setting [1], the EC50 amounted to 1370 nM.
Same read-out and setting: for `CN(Cc1cn2c(-c3ccc4c(cnn4C)c3)cnc2cn1)c1ccc(C#N)cc1` [Compound 62, 4-[methyl({[3-(1-methyl-1H-indazol-5-yl)imidazo[1,2-a]pyrazin-6-yl]methyl})amino]benzonitrile] the value was 82 nM.

The record behind these values is US20150291598A1 (NOVARTIS AG, priority 2012, published 2015).
